In patent US20170240592A1, “GADD45BETA/MKK7 INHIBITOR FOR THE TREATMENT OF A RESISTANT HAEMATOLOGICAL MALIGNANCY” (IMPERIAL INNOVATIONS LIMITED, priority 2014, published 2017):

Experiments:
FIG. 14 = experiment: FIG. 14
Excerpt: Table printed on a drawing sheet, FIG. 14
Values denote means±SD (n=3).
First reader's note: Each cell holds the value ± error and its unit together.

[1] = in vivo pharmacokinetic analyses after single intravenous injection; conditions: calculated from measured PK values, k0=k1×Vd×Cp
Protocol: In vitro pharmacokinetic assays were performed according to established, in-house protocols and included: plasma stability (human), thermodynamic solubility (PBS pH 7.4, at 37° C. for 14 days), microsomal stability (human), plasma protein binding (PPB; mouse and human), and distribution coefficient (Log D). In vivo pharmacokinetic analyses were also performed at Cyprotex according to established, in-house protocols. Briefly, the peptides were dissolved in PBS and administered by single intravenous injection to CD1 male mice at the dose of 10 mg/kg (25-30 g of total body weight; n=3 mice per time point per compound). Blood samples were collected in heparinized tubes at up to 7 time points after this injection (i.e. 0.08, 0.25, 0.5, 1, 2, 4 and 8 hr), and the plasma concentrations of the test peptide were determined at each time point by LC-MS/MS, using a five-point standard curve covering a peptide concentration range from 3 to 3,000 ng/mL. Standard curves were prepared using blank plasma matrices and treated in the same manner as the test samples. […] Values were calculated from the data of the peptide plasma concentration versus time curves using a non-compartmental model analysis, as described elsewhere (Groulx, 2006; Landaw and Di Stefano 3rd, 1982). The doses of z-DTP2 and DTP3 predicted to achieve the therapeutic plasma concentration of 1 μM at the steady state were calculated from the measured pharmacokinetic values using the following equation: k0=k1×Vd×Cp (where Vd is expressed in L/kg; Cp is the plasma concentration at the steady state expressed in mg/L; k0 is the zero order input expressed in mg/kg/hr; k1 is the first order elimination constant [0.693/t1/2]).

KMS-12 cells = experiment: [3H]thymidine incorporation assay, DTP3 and bortezomib as single agents or in combination, KMS-12
Protocol: Treatments with DTP3 were for 6 days; bortezomib was added to the cell cultures 48 hr prior to the measurement of cell viability. For the combination treatment, DTP3 was used at the concentrations of 3 nM in U266 cells and of 10 nM in KMS-12 cells, whereas bortezomib was used at increasing concentrations, as shown.
Viability data from the experiment shown in FIG. 12 were converted into values representing the fraction of cells affected (FA) equaling 0.5 in the drug-treated cultures compared with untreated cultures, and the interaction of DTP3 with bortezomib was analysed according to the Chou-Talalay method (Chou, 2006). Also shown are the drug concentrations giving the FA value of 0.5 and the description of the CI. Based on the Chou-Talalay equation (Chou, 2006), synergy is present when the CI is less than 1.0 (where values between 0.3 and 0.7 denote synergism, and values between 0.1 and 0.3 denote strong synergism); the combination is additive when CI equals 1.0, and antagonistic when it is more than 1.0 (Chou, 2006).
[^3H]Thymidine incorporation assays were performed using standard protocols (Griffiths and Sundaram, 2011). […] At 24, 72 or 144 hr, cells were incubated for an additional 16 hr with 0.037 MBq/well of [^3H]thymidine (Amersham), and then harvested onto glass fibre filter mats using a 96-well plate automated Tomtec cell harvester (Receptor Technologies) and analysed by liquid scintillation spectroscopy with a LKB Wallac Trilux Microbeta 3 b-counter (PerkinElmer). Values were expressed as the percentage of the counts per minute (cpm) measured in the treated cultures relative to the cpm measured in the respective untreated cultures. […]
The activities of DTP3 and bortezomib in the U266 and KMS-12 myeloma cell lines, both as single agents and in combination, were determined using [^3H]thymidine incorporation assays, performed as described above in “Cell Proliferation, Cell Death, and Apoptosis Assays”. The IC50 values of bortezomib as single agent were determined at 48 hr using 9 concentrations of drug, ranging from 0.1 to 1,000 nM.

CC(=O)N[C@H](Cc1ccc(O)cc1)C(=O)N[C@H](CCCNC(=N)N)C(=O)N[C@H](Cc1ccccc1)C(N)=O [DTP3, Acetyl-Tyr-Arg-Phe-NH2]
CL (FIG. 14): 27.13 ± 4.09 mL/min/kg
Vd (FIG. 14): 2.80 ± 1.26 L/kg
predicted dose required to achieve the therapeutic plasma concentration of 1 μM at the steady state (k0) [1]: 0.81 mg/kg/h
combination index (CI) with bortezomib (KMS-12 cells; FA 0.5, DTP3 10 nM for 6 days, bortezomib last 48 hr, Chou-Talalay): 0.56
description of the CI (KMS-12 cells; combination with bortezomib): synergism (values between 0.3 and 0.7 denote synergism)
